Assay results taken from patent publication US12264156B2, “Compounds and pharmaceutical compositions thereof for the treatment of diseases” (GALAPAGOS NV, priority 2018, dated 2025).

Target: T1, SIK2 (Homo sapiens, UniProt Q9H0K1)
T1 construct: purchased ThermoFisher Scientific PV4792
Assay: ADP-Glo kinase assay, SIK2
Assay type: biochemical
Settings: ADP-Glo SIK kinase assay
Method in brief: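 Wells with 1% DMSO or 10 μM staurosporine (final) define the control window. The kinase reaction with substrate and ATP runs 120 min at RT, followed by ADP-Glo detection: ATP depletion (40 min) and ADP-derived luminescence (30 min).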

T1 sequence (Q9H0K1 whole entry): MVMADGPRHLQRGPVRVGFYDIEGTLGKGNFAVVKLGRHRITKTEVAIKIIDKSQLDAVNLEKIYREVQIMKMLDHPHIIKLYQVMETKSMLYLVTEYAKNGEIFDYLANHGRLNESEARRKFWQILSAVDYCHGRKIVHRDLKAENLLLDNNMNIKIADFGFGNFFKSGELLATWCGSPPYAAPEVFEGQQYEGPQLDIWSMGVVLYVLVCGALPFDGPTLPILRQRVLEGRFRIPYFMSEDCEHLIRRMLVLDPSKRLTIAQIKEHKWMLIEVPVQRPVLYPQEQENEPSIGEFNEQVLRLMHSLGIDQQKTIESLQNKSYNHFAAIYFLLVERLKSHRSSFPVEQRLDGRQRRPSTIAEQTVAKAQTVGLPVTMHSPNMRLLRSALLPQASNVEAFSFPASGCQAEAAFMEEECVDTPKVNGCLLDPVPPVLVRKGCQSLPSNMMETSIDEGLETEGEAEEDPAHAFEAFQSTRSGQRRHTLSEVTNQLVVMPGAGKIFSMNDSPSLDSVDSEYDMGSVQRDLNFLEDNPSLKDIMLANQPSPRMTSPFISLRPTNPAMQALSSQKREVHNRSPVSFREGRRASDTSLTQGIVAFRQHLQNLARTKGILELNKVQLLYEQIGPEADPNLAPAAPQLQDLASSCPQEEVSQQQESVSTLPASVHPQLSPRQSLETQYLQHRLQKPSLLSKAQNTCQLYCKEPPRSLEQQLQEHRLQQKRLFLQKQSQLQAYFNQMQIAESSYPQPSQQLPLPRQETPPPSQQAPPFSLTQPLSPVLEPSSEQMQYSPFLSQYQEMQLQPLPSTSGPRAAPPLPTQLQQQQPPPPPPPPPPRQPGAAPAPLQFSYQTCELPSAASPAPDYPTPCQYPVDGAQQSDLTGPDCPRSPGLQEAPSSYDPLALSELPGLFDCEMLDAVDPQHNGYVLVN

SMILES | IC50 [nM]
COc1cc(-c2cnc3cc(OCC(O)CN4CCOCC4)ccn23)cc(OC(F)F)c1C(=O)NC1CC1 (single isomer, unassigned) [Cpd 387, N-cyclopropyl-2-(difluoromethoxy)-4-[7-(2-hydroxy-3-morpholino-propoxy)imidazo[1,2-a]pyridin-3-yl]-6-methoxy-benzamide] | 0.01 to 10
COc1cc(-c2cnc3cc(OCC(O)CN4CCOCC4)ccn23)cc(OC(F)F)c1C(=O)NC1CC1 (single isomer, unassigned) [Cpd 386, N-cyclopropyl-2-(difluoromethoxy)-4-[7-(2-hydroxy-3-morpholino-propoxy)imidazo[1,2-a]pyridin-3-yl]-6-methoxy-benzamide] | 0.01 to 10
COc1cc(-c2cnc3cc(OCCCN4CCC4)ccn23)cc(OC(F)F)c1C(=O)NC1CC1 [compound 274, 4-[7-[3-(azetidin-1-yl)propoxy]imidazo[1,2-a]pyridin-3-yl]-N-cyclopropyl-2-(difluoromethoxy)-6-methoxy-benzamide] | 0.01 to 10
COc1cc(-c2cnc3cc(OCCN4CCOC[C@H]4C)ccn23)cc2c1C(=O)N(CC(F)(F)F)CC2 [compound 259, 8-methoxy-6-[7-[2-[(3R)-3-methylmorpholin-4-yl]ethoxy]imidazo[1,2-a]pyridin-3-yl]-2-(2,2,2-trifluoroethyl)-3,4-dihydroisoquinolin-1-one] | 10 to 100
COc1cc(-c2cnc3cc(OCCCN4CCC5(CC4)CNC(=O)O5)ccn23)cc(OC(F)F)c1C(=O)NC1CC1 [Cpd 324, N-cyclopropyl-2-(difluoromethoxy)-6-methoxy-4-[7-[3-(2-oxo-1-oxa-3,8-diazaspiro[4.5]decan-8-yl)propoxy]imidazo[1,2-a]pyridin-3-yl]benzamide] | 0.01 to 10
COc1cc(-c2cnc3cc(OCCN4CCN(C)CC4)ccn23)cc(OC(F)F)c1C(=O)NC1CC1 [compound 9, N-cyclopropyl-2-(difluoromethoxy)-6-methoxy-4-[7-[2-(4-methylpiperazin-1-yl)ethoxy]imidazo[1,2-a]pyridin-3-yl]benzamide] | 0.01 to 10
COc1cc(-c2cnc3cc(OCCCN4CCC5(CC4)CN(C)C(=O)O5)ccn23)cc(OC(F)F)c1C(=O)NC1CC1 [compound 325, N-cyclopropyl-2-(difluoromethoxy)-6-methoxy-4-[7-[3-(3-methyl-2-oxo-1-oxa-3,8-diazaspiro[4.5]decan-8-yl)propoxy]imidazo[1,2-a]pyridin-3-yl]benzamide] | 0.01 to 10
COc1cc(-c2cnc3cc(OCCN4C5CCC4COC5)ccn23)cc(OC(F)F)c1C(=O)NC1CC1 [compound 193, N-cyclopropyl-2-(difluoromethoxy)-6-methoxy-4-[7-[2-(3-oxa-8-azabicyclo [3.2.1]octan-8-yl)ethoxy]imidazo[1,2-a]pyridin-3-yl]benzamide] | 0.01 to 10
CCOC(=O)C1(F)CCN(CCOc2ccn3c(-c4cc(OC)c(C(=O)NC5CC5)c(OC(F)F)c4)cnc3c2)CC1 [compound 390, ethyl 1-[2-[3-[4-(cyclopropylcarbamoyl)-3-(difluoromethoxy)-5-methoxy-phenyl]imidazo[1,2-a]pyridin-7-yl]oxyethyl]-4-fluoro-piperidine-4-carboxylate] | 0.01 to 10

Continued, values first:

IC50 [nM] | SMILES
0.01 to 10 | COc1cc(-c2cnc3cc(OCC4(F)CN(C(=O)OC(C)(C)C)C4)ccn23)cc2c1C(=O)N(CC(F)(F)F)CC2 [compound 248, tert-butyl 3-fluoro-3-[[3-[8-methoxy-1-oxo-2-(2,2,2-trifluoroethyl)-3,4-dihydroisoquinolin-6-yl]imidazo[1,2-a]pyridin-7-yl]oxymethyl]azetidine-1-carboxylate]
0.01 to 10 | COc1cc(-c2cnc3cc(OC[C@H]4COCCO4)ccn23)cc2c1C(=O)NCC2 [compound 242, 6-[7-[[(2R)-1,4-dioxan-2-yl]methoxy]imidazo[1,2-a]pyridin-3-yl]-8-methoxy-3,4-dihydro-2H-isoquinolin-1-one]
> 500 | COc1cc(-c2cnc3cc(OC(C)(C)CO)ccn23)cc(OC(F)F)c1C(=O)NC1CC1 [Cpd 209, N-cyclopropyl-2-(difluoromethoxy)-4-[7-(2-hydroxy-1,1-dimethyl-ethoxy)imidazo[1,2-a]pyridin-3-yl]-6-methoxy-benzamide]
0.01 to 10 | COc1cc(-c2cnc3cc(OCCN4CC(F)(F)C4)ccn23)cc2c1C(=O)N(CC(F)(F)F)CC2 [Cpd 244, 6-[7-[2-(3,3-difluoroazetidin-1-yl)ethoxy]imidazo[1,2-a]pyridin-3-yl]-8-methoxy-2-(2,2,2-trifluoroethyl)-3,4-dihydroisoquinolin-1-one]
0.01 to 10 | COc1cc(-c2cnc3cc(OCCCN4CCCC4)ccn23)cc(OC(F)F)c1C(=O)NC1CC1 [compound 275, N-cyclopropyl-2-(difluoromethoxy)-6-methoxy-4-[7-(3-pyrrolidin-1-ylpropoxy)imidazo[1,2-a]pyridin-3-yl]benzamide]
0.01 to 10 | COc1cc(-c2cnc3cc(OCCN4CCN(C(C)C)CC4)ccn23)cc(OC(F)F)c1C(=O)NC1CC1 [compound 276, N-cyclopropyl-2-(difluoromethoxy)-4-[7-[2-(4-isopropylpiperazin-1-yl)ethoxy]imidazo[1,2-a]pyridin-3-yl]-6-methoxy-benzamide]
0.01 to 10 | CCOC(=O)C1(F)CCN(CCCOc2ccn3c(-c4cc(OC)c(C(=O)NC5CC5)c(OC(F)F)c4)cnc3c2)CC1 [Cpd 363, ethyl 1-[3-[3-[4-(cyclopropylcarbamoyl)-3-(difluoromethoxy)-5-methoxy-phenyl]imidazo[1,2-a]pyridin-7-yl]oxypropyl]-4-fluoro-piperidine-4-carboxylate]
0.01 to 10 | COc1cc(-c2cnc3cc(OCCCN4CC5(COC5)C4)ccn23)cc(OC(F)F)c1C(=O)NC1CC1 [compound 273, N-cyclopropyl-2-(difluoromethoxy)-6-methoxy-4-[7-[3-(2-oxa-6-azaspiro[3.3]heptan-6-yl)propoxy]imidazo[1,2-a]pyridin-3-yl]benzamide]
0.01 to 10 | COc1cc(-c2cnc3cc(OCCOCCN4CCCCC4)ccn23)cc(OC(F)F)c1C(=O)NC1CC1 [compound 305]
0.01 to 10 | COc1cc(-c2cnc3cc(OCCCN4CCS(=O)(=O)CC4)ccn23)cc(OC(F)F)c1C(=O)NC1CC1 [Cpd 331, N-cyclopropyl-2-(difluoromethoxy)-4-[7-[3-(1,1-dioxo-1,4-thiazinan-4-yl)propoxy]imidazo[1,2-a]pyridin-3-yl]-6-methoxy-benzamide]
